From paper PMC9291687

Legend:
prostate cancer (PC-3) = assay: MTT antiproliferative assay, PC-3; conditions: for Growth inhibition (%) PC-3: 100 μM, MTT; for inhibition at 100 µM: read-out: Growth inhibition (%) PC-3
Procedure: (§1) Preliminary screening against the cancer cell lines was performed, using doxorubicin as a reference drug at doses of 100 μM.
(§2) In vitro cytotoxicity was carried out using MTT assay protocol[63] as described in Supplementary data.
(§3) proliferative activity was assessed quantitatively as follows;
(§4) Human cancer cell lines were dropped in 96-well plates at a density of 3-8 × 10^3 cells/well.
(§5) growth medium was exchanged with 0.1 ml of fresh medium containing graded concentrations of the test compounds to be or equal DMSO and incubated for two days. Then 10 μl MTT solution (0.5 mg/ml) was added to each well, and the cells were incubated for additional 4 h. The crystals of MTT-formazan were dissolved in 100 μl of DMSO; the absorbance of each well was measured at 490 nm using an automatic ELISA reader system (TECAN, CHE). The IC50 values were calculated using the nonlinear regression fitting models (Graph Pad, Prism Version 5). The data represented the mean of three independent experiments in triplicate and were expressed as means
(§6) The results were expressed as growth inhibitory concentration (IC50) values and

lung cancer (A-549) = assay: MTT antiproliferative assay, A-549; conditions: for Growth inhibition (%) A549: 100 μM, MTT; for inhibition at 100 µM: A549, read-out: Growth inhibition (%) A549
Procedure: as §1, §2, §3, §4, §5, §6

breast cancer (MCF-7) = assay: MTT antiproliferative assay, MCF-7; conditions: for Growth inhibition (%) MCF-7: 100 μM, MTT; for inhibition at 100 µM: MCF7, read-out: Growth inhibition (%) MCF-7
Procedure: as §1, §2, §3, §4, §5, §6

colon cancer (HCT-116) = assay: MTT antiproliferative assay, HCT-116; conditions: for Growth inhibition (%) HCT-116: 100 μM; for inhibition at 100 µM: HCT-116, read-out: Growth inhibition (%) HCT-116
Procedure: as §1, §2, §3, §4, §5, §6

caspase-3 in PC-3 cells = assay: Caspase-3 determination (ELISA); format: cell-based, human; conditions: 24 h treatment, 8a at 3.04 µM, control 84.24, mean ± SEM

Row | Compound | melting point [°C] | inhibition at 100 µM (prostate cancer (PC-3); Homo sapiens) [%] | inhibition at 100 µM (lung cancer (A-549); Homo sapiens) [%] | inhibition at 100 µM (breast cancer (MCF-7); Homo sapiens) [%] | inhibition at 100 µM (colon cancer (HCT-116); Homo sapiens) [%] | also measured
1 | 3-Amino-8–(4-chlorophenyl)-6–(2,4-dichlorophenyl)-10,10a-dihydropyrido [2,3-d][1, 2, 4]triazolo[4,3-a]pyrimidin-5(1H)-one [Compound 11a] | – | – | – | – | – | Growth inhibition (%) PC-3 (prostate cancer (PC-3)): 30%; Growth inhibition (%) A549 (lung cancer (A-549)): 2%; Growth inhibition (%) MCF-7 (breast cancer (MCF-7)): 7%; Growth inhibition (%) HCT-116 (colon cancer (HCT-116); MTT): 9%
2 | CN[C@@H]1C[C@H]2O[C@@](C)([C@@H]1OC)n1c3ccccc3c3c4c(c5c6ccccc6n2c5c31)C(=O)NC4 [Staurosporine, reference compound] | – | – | – | – | – | Caspase-3 level (caspase-3 in PC-3 cells): 413.1 ± 11.66 pg/mL; Caspase-3 level (caspase-3 in PC-3 cells; listed as staurosporine): 413.1 pg/mL
3 | 3-Amino-8-(p-Tolyl)-6–(3,4,5-trimethoxyphenyl)-2,3-dihydropyrido[2,3-d][1, 2, 4]triazolo[4,3-a]pyrimidin-5(1H)-one [Compound 11e] | – | – | – | – | – | Growth inhibition (%) PC-3 (prostate cancer (PC-3)): 22%; Growth inhibition (%) A549 (lung cancer (A-549)): 30%; Growth inhibition (%) MCF-7 (breast cancer (MCF-7)): 23%; Growth inhibition (%) HCT-116 (colon cancer (HCT-116); MTT): 6%
4 | COc1ccc(-c2cc(-c3ccc(C)cc3)nc3nc4[nH]nc(-c5ccccc5)n4c(=O)c23)cc1 [Compound 12b, 6-(4-Methoxyphenyl)-3-phenyl-8-(p-tolyl)pyrido[2,3-d][1,2, 4]triazolo[4,3-a]pyrimidin-5(1H)-one] | 325 to 327 | 36 | 33 | 54 | 56 | IC50 (colon cancer (HCT-116); Homo sapiens, HCT-116, read-out: IC50 HCT-116): 86.3 ± 2.2 µM; Cytotoxic activity against HCT-116 (colon cancer (HCT-116); MTT): mild cytotoxic activity
5 | Cc1ccc(-c2cc(-c3ccc(Cl)cc3)nc3nc4[nH][nH]c(=O)n4c(=O)c23)cc1 [Compound 10a, 8-(4-Chlorophenyl)-6-(p-tolyl)-1,2-dihydropyrido[2,3-d][1,2, 4]triazolo[4,3-a]pyrimidine-3,5-dione] | 347 to 349 | 29 | 17 | 41 | 21 | –
6 | COc1cccc2c1C(=O)c1c(O)c3c(c(O)c1C2=O)C[C@@](O)(C(=O)CO)C[C@@H]3O[C@H]1C[C@H](N)[C@H](O)[C@H](C)O1 [Doxorubicin, reference compound] | – | 100 | 100 | 100 | 100 | –
7 | COc1ccc(-c2cc(-c3ccc(C)cc3)nc3nc4[nH][nH]c(=O)n4c(=O)c23)cc1 [Compound 10b, 6-(4-Methoxyphenyl)-8-(p-tolyl)-1,2-dihydropyrido[2,3-d][1,2, 4]triazolo[4,3-a]pyrimidine-3,5-dione] | 366 to 368 | 15 | 7 | 4 | 14 | –
8 | 3-Amino-6–(4-methoxyphenyl)-8-(p-tolyl)-2,3-dihydropyrido[2,3-d][1, 2, 4] triazolo[4,3-a]pyrimidin-5(1H)-one [Compound 11c] | – | – | – | – | – | Growth inhibition (%) PC-3 (prostate cancer (PC-3)): 28%; Growth inhibition (%) A549 (lung cancer (A-549)): 26%; Growth inhibition (%) MCF-7 (breast cancer (MCF-7)): 23%; Growth inhibition (%) HCT-116 (colon cancer (HCT-116); MTT): 3%
9 | 3-Amino-8–(4-chlorophenyl)-6–(3,4,5-trimethoxyphenyl) -2,3dihydropyrido[2,3-d][1, 2, 4]triazolo[4,3-a] pyrimidin-5(1H)-one [Compound 11d] | – | – | – | – | – | Growth inhibition (%) PC-3 (prostate cancer (PC-3)): 20%; Growth inhibition (%) A549 (lung cancer (A-549)): 5%; Growth inhibition (%) MCF-7 (breast cancer (MCF-7)): 37%; Growth inhibition (%) HCT-116 (colon cancer (HCT-116); MTT): 3%
10 | 3-Amino-8–(4-chlorophenyl)-6-(p-tolyl)-2,3-dihydropyrido[2,3-d][1, 2, 4] triazolo[4,3-a]pyrimidin-5(1H)-one [Compound 11b] | – | – | – | – | – | Growth inhibition (%) PC-3 (prostate cancer (PC-3)): 43%; Growth inhibition (%) A549 (lung cancer (A-549)): 28%; Growth inhibition (%) MCF-7 (breast cancer (MCF-7)): 29%; Growth inhibition (%) HCT-116 (colon cancer (HCT-116); MTT): 15%
11 | O=c1[nH]c(=S)[nH]c2nc(-c3ccc(Cl)cc3)cc(-c3ccc(Cl)cc3Cl)c12 [Compound 7a, 7–(4-Chlorophenyl)-5–(2,4-dichlorophenyl)-2-thioxo-2,3-dihydropyrido [2,3-d]pyrimidin-4(1H)-one] | 318 to 320 | 12 | 14 | 34 | 18 | –
12 | COc1cc(-c2cc(-c3ccc(Cl)cc3)nc3nc4[nH]c5ccccc5c(=O)n4c(=O)c23)cc(OC)c1OC [Compound 8c, 2–(4-Chlorophenyl)-4–(3,4,5-trimethoxyphenyl)-5H-pyrido [2',3':4,5] pyrimido[2,1-b]quinazoline-5,7(12H)-dione] | < 300 | 17 | 8 | 21 | 9 | –
13 | COc1cc(-c2cc(-c3ccc(C)cc3)nc3nc4[nH]nc(-c5ccccc5)n4c(=O)c23)cc(OC)c1OC [Compound 12d, 3-Phenyl-8-(p-tolyl)-6–(3,4,5-trimethoxyphenyl)pyrido[2,3-d][1,2, 4]triazolo [4,3-a]pyrimidin-5(1H)-one] | 322 to 324 | 14 | 4 | 15 | 5 | –
14 | COc1cc(-c2cc(-c3ccc(Cl)cc3)nc3nc4[nH]nc(-c5ccccc5)n4c(=O)c23)cc(OC)c1OC [Compound 12c, 8-(4-Chlorophenyl)-3-phenyl-6–(3,4,5-trimethoxyphenyl)pyrido[2,3-d][1,2, 4]triazolo[4,3-a]pyrimidin-5(1H)-one] | 313 to 315 | 30 | 22 | 55 | 33 | –
15 | COc1cc(-c2cc(-c3ccc(Cl)cc3)nc3nc4[nH][nH]c(=O)n4c(=O)c23)cc(OC)c1OC [Compound 10c, 8-(4-Chlorophenyl)-6–(3,4,5-trimethoxyphenyl)-1,2-dihydropyrido[2,3-d][1,2, 4]triazolo[4,3-a]pyrimidine-3,5-dione] | 367 to 369 | 52 | 9 | 8 | 23 | –
16 | COc1cc(-c2cc(-c3ccc(C)cc3)nc3nc4[nH][nH]c(=O)n4c(=O)c23)cc(OC)c1OC [Compound 10d, 8-(p-Tolyl)-6–(3,4,5-trimethoxyphenyl)-1,2-dihydropyrido[2,3-d][1,2, 4]triazolo [4,3-a]pyrimidine-3,5-dione] | 391 to 393 | 8 | 2 | 5 | 5 | –
17 | Cc1ccc(-c2cc(-c3ccc(Cl)cc3)nc3nc4[nH]nc(-c5ccccc5)n4c(=O)c23)cc1 [Compound 12a, 8–(4-Chlorophenyl)-3-phenyl-6-(p-tolyl)pyrido[2,3-d][1,2, 4]triazolo[4,3-a]pyrimidin-5(1H)-one] | 315 to 317 | 28 | 41 | 45 | 35 | –
18 | C#Cc1cccc(Nc2ncnc3cc(OCCOC)c(OCCOC)cc23)c1 [Erlotinib, reference compound] | – | – | – | – | – | IC50 (prostate cancer (PC-3); Homo sapiens, read-out: IC50 PC-3): 11.1 ± 1.07 µM; IC50 (lung cancer (A-549); Homo sapiens, A549, read-out: IC50 A-549): 6.53 ± 0.82 µM; IC50 (breast cancer (MCF-7); Homo sapiens, MCF7, read-out: IC50 MCF-7): 4.21 ± 0.62 µM
